Measured values published in the NIST ThermoML archive (doi:10.1016/j.jct.2014.05.020).

Assay: excess molar enthalpy (molar enthalpy of mixing); xn = mol fraction of the nth substance listed
Conditions: Flow calorimetry

C1CCCCC1 [cyclohexane] + c1ccccc1
Conditions | excess molar enthalpy [kcal/mol]
423.2 K, 25000 kPa, Liquid, x2 = 0.829 | 0.0735
423.2 K, 25000 kPa, Liquid, x2 = 0.8729 | 0.0576
423.2 K, 25000 kPa, Liquid, x2 = 0.916 | 0.0394
423.2 K, 25000 kPa, Liquid, x2 = 0.9584 | 0.0193
473.2 K, 5000 kPa, Liquid, x2 = 0.1189 | 0.0453
473.2 K, 5000 kPa, Liquid, x2 = 0.1765 | 0.0633
473.2 K, 5000 kPa, Liquid, x2 = 0.233 | 0.0777
473.2 K, 5000 kPa, Liquid, x2 = 0.3424 | 0.0989
473.2 K, 5000 kPa, Liquid, x2 = 0.4475 | 0.11
473.2 K, 5000 kPa, Liquid, x2 = 0.5485 | 0.111
473.2 K, 5000 kPa, Liquid, x2 = 0.6457 | 0.103
473.2 K, 5000 kPa, Liquid, x2 = 0.7392 | 0.0873
473.2 K, 5000 kPa, Liquid, x2 = 0.8293 | 0.0633
473.2 K, 5000 kPa, Liquid, x2 = 0.8732 | 0.0486
473.2 K, 5000 kPa, Liquid, x2 = 0.9162 | 0.0332
473.2 K, 5000 kPa, Liquid, x2 = 0.9585 | 0.0184
473.2 K, 15000 kPa, Liquid, x2 = 0.1188 | 0.0434
473.2 K, 15000 kPa, Liquid, x2 = 0.1763 | 0.0605
473.2 K, 15000 kPa, Liquid, x2 = 0.2327 | 0.075
473.2 K, 15000 kPa, Liquid, x2 = 0.3421 | 0.0956
473.2 K, 15000 kPa, Liquid, x2 = 0.4471 | 0.106
473.2 K, 15000 kPa, Liquid, x2 = 0.5482 | 0.107
473.2 K, 15000 kPa, Liquid, x2 = 0.6454 | 0.1
473.2 K, 15000 kPa, Liquid, x2 = 0.7389 | 0.0848
473.2 K, 15000 kPa, Liquid, x2 = 0.8291 | 0.0615
473.2 K, 15000 kPa, Liquid, x2 = 0.873 | 0.047
473.2 K, 15000 kPa, Liquid, x2 = 0.9161 | 0.0316
473.2 K, 15000 kPa, Liquid, x2 = 0.9584 | 0.0173
473.2 K, 25000 kPa, Liquid, x2 = 0.1187 | 0.042
473.2 K, 25000 kPa, Liquid, x2 = 0.1762 | 0.0588
473.2 K, 25000 kPa, Liquid, x2 = 0.2325 | 0.0729
473.2 K, 25000 kPa, Liquid, x2 = 0.3418 | 0.0929
473.2 K, 25000 kPa, Liquid, x2 = 0.4469 | 0.103
473.2 K, 25000 kPa, Liquid, x2 = 0.5479 | 0.104
473.2 K, 25000 kPa, Liquid, x2 = 0.6451 | 0.0968
473.2 K, 25000 kPa, Liquid, x2 = 0.7388 | 0.0815
473.2 K, 25000 kPa, Liquid, x2 = 0.829 | 0.0584
473.2 K, 25000 kPa, Liquid, x2 = 0.8729 | 0.0442
473.2 K, 25000 kPa, Liquid, x2 = 0.916 | 0.0288
473.2 K, 25000 kPa, Liquid, x2 = 0.9584 | 0.0149
498.2 K, 5000 kPa, Liquid, x2 = 0.1189 | 0.0447
498.2 K, 5000 kPa, Liquid, x2 = 0.1765 | 0.0625
498.2 K, 5000 kPa, Liquid, x2 = 0.233 | 0.0774
498.2 K, 5000 kPa, Liquid, x2 = 0.3424 | 0.0984
498.2 K, 5000 kPa, Liquid, x2 = 0.4475 | 0.109
498.2 K, 5000 kPa, Liquid, x2 = 0.5485 | 0.11
498.2 K, 5000 kPa, Liquid, x2 = 0.6457 | 0.102
498.2 K, 5000 kPa, Liquid, x2 = 0.7392 | 0.0863
498.2 K, 5000 kPa, Liquid, x2 = 0.8293 | 0.0618
498.2 K, 5000 kPa, Liquid, x2 = 0.8732 | 0.0465
498.2 K, 5000 kPa, Liquid, x2 = 0.9162 | 0.0295
498.2 K, 15000 kPa, Liquid, x2 = 0.1188 | 0.0418
498.2 K, 15000 kPa, Liquid, x2 = 0.1763 | 0.0582
498.2 K, 15000 kPa, Liquid, x2 = 0.2327 | 0.0716
498.2 K, 15000 kPa, Liquid, x2 = 0.3421 | 0.091
498.2 K, 15000 kPa, Liquid, x2 = 0.4471 | 0.101
498.2 K, 15000 kPa, Liquid, x2 = 0.5482 | 0.102
498.2 K, 15000 kPa, Liquid, x2 = 0.6454 | 0.0943
498.2 K, 15000 kPa, Liquid, x2 = 0.7389 | 0.0791
498.2 K, 15000 kPa, Liquid, x2 = 0.8291 | 0.0565
498.2 K, 15000 kPa, Liquid, x2 = 0.873 | 0.042
498.2 K, 15000 kPa, Liquid, x2 = 0.9161 | 0.0262
523.2 K, 5000 kPa, Liquid, x2 = 0.1189 | 0.0458
523.2 K, 5000 kPa, Liquid, x2 = 0.1765 | 0.0644
523.2 K, 5000 kPa, Liquid, x2 = 0.233 | 0.0798
523.2 K, 5000 kPa, Liquid, x2 = 0.3424 | 0.101
523.2 K, 5000 kPa, Liquid, x2 = 0.4475 | 0.112
523.2 K, 5000 kPa, Liquid, x2 = 0.5485 | 0.114
523.2 K, 5000 kPa, Liquid, x2 = 0.6457 | 0.105
523.2 K, 5000 kPa, Liquid, x2 = 0.7392 | 0.0877
523.2 K, 5000 kPa, Liquid, x2 = 0.8293 | 0.0619
523.2 K, 5000 kPa, Liquid, x2 = 0.8732 | 0.0463
523.2 K, 5000 kPa, Liquid, x2 = 0.9162 | 0.0303
523.2 K, 5000 kPa, Liquid, x2 = 0.9585 | 0.0173
523.2 K, 15000 kPa, Liquid, x2 = 0.1188 | 0.0387
523.2 K, 15000 kPa, Liquid, x2 = 0.1763 | 0.0539
523.2 K, 15000 kPa, Liquid, x2 = 0.2327 | 0.0667
523.2 K, 15000 kPa, Liquid, x2 = 0.3421 | 0.0855
523.2 K, 15000 kPa, Liquid, x2 = 0.4471 | 0.0946
523.2 K, 15000 kPa, Liquid, x2 = 0.5482 | 0.0951
523.2 K, 15000 kPa, Liquid, x2 = 0.6454 | 0.088
523.2 K, 15000 kPa, Liquid, x2 = 0.7389 | 0.0732
523.2 K, 15000 kPa, Liquid, x2 = 0.8291 | 0.0516
523.2 K, 15000 kPa, Liquid, x2 = 0.873 | 0.0391
523.2 K, 15000 kPa, Liquid, x2 = 0.9161 | 0.025
523.2 K, 15000 kPa, Liquid, x2 = 0.9584 | 0.0128
523.2 K, 25000 kPa, Liquid, x2 = 0.1187 | 0.0369
523.2 K, 25000 kPa, Liquid, x2 = 0.1762 | 0.0516
523.2 K, 25000 kPa, Liquid, x2 = 0.2325 | 0.0643
523.2 K, 25000 kPa, Liquid, x2 = 0.3418 | 0.0817
523.2 K, 25000 kPa, Liquid, x2 = 0.4469 | 0.0899
523.2 K, 25000 kPa, Liquid, x2 = 0.5479 | 0.0903
523.2 K, 25000 kPa, Liquid, x2 = 0.6451 | 0.0836
523.2 K, 25000 kPa, Liquid, x2 = 0.7388 | 0.0694
523.2 K, 25000 kPa, Liquid, x2 = 0.829 | 0.0483
523.2 K, 25000 kPa, Liquid, x2 = 0.8729 | 0.0367
523.2 K, 25000 kPa, Liquid, x2 = 0.916 | 0.0234
523.2 K, 25000 kPa, Liquid, x2 = 0.9584 | 0.0123
573.2 K, 15000 kPa, Fluid (supercritical or subcritical phases), x2 = 0.1188 | 0.0358
573.2 K, 15000 kPa, Fluid (supercritical or subcritical phases), x2 = 0.1763 | 0.0503
573.2 K, 15000 kPa, Fluid (supercritical or subcritical phases), x2 = 0.2327 | 0.0611
573.2 K, 15000 kPa, Fluid (supercritical or subcritical phases), x2 = 0.3421 | 0.0788
573.2 K, 15000 kPa, Fluid (supercritical or subcritical phases), x2 = 0.4471 | 0.088
573.2 K, 15000 kPa, Fluid (supercritical or subcritical phases), x2 = 0.5482 | 0.0891
573.2 K, 15000 kPa, Fluid (supercritical or subcritical phases), x2 = 0.6454 | 0.0821
573.2 K, 15000 kPa, Fluid (supercritical or subcritical phases), x2 = 0.7389 | 0.0687
573.2 K, 15000 kPa, Fluid (supercritical or subcritical phases), x2 = 0.8291 | 0.0493
573.2 K, 15000 kPa, Fluid (supercritical or subcritical phases), x2 = 0.873 | 0.0361
573.2 K, 15000 kPa, Fluid (supercritical or subcritical phases), x2 = 0.9161 | 0.025
573.2 K, 15000 kPa, Fluid (supercritical or subcritical phases), x2 = 0.9584 | 0.012
573.2 K, 25000 kPa, Fluid (supercritical or subcritical phases), x2 = 0.1187 | 0.0333
573.2 K, 25000 kPa, Fluid (supercritical or subcritical phases), x2 = 0.1762 | 0.0474
573.2 K, 25000 kPa, Fluid (supercritical or subcritical phases), x2 = 0.2325 | 0.0572
573.2 K, 25000 kPa, Fluid (supercritical or subcritical phases), x2 = 0.3418 | 0.0738
573.2 K, 25000 kPa, Fluid (supercritical or subcritical phases), x2 = 0.4469 | 0.0825
573.2 K, 25000 kPa, Fluid (supercritical or subcritical phases), x2 = 0.5479 | 0.0834
573.2 K, 25000 kPa, Fluid (supercritical or subcritical phases), x2 = 0.6451 | 0.0767
573.2 K, 25000 kPa, Fluid (supercritical or subcritical phases), x2 = 0.7388 | 0.0641
573.2 K, 25000 kPa, Fluid (supercritical or subcritical phases), x2 = 0.829 | 0.045
573.2 K, 25000 kPa, Fluid (supercritical or subcritical phases), x2 = 0.8729 | 0.0332
573.2 K, 25000 kPa, Fluid (supercritical or subcritical phases), x2 = 0.916 | 0.02
573.2 K, 25000 kPa, Fluid (supercritical or subcritical phases), x2 = 0.9584 | 0.00954
